This assay deals with BDF1 mice, P388 leukemia ip, median survival T/C. The assay is described as follows: NCI In Vivo Anticancer Drug Screen. Data for tumor model P388 Leukemia (intraperitoneal) in B6D2F1 (BDF1) mice. The note with it: endpoint: median survival time, higher = longer survival. The method in brief:
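Compound-treated tumour-bearing mice were compared with vehicle-treated controls. Survival was recorded, and the value is the treated-group measurement divided by the control-group measurement (T/C).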

[1] abbreviates: dose: 100.0 mg/kg/injection, schedule: Q01DX009 (ip), vehicle: saline with Tween-80.
The mark [2] stands for this setting: dose: 100.0 mg/kg/injection, schedule: Q04DX003 (ip), vehicle: saline with Tween-80.
Where [3] appears, read: dose: 200.0 mg/kg/injection, schedule: Q01DX009 (ip), vehicle: saline with Tween-80.
Setting [4] is: dose: 200.0 mg/kg/injection, schedule: Q04DX003 (ip), vehicle: saline with Tween-80.
Where [5] appears, read: dose: 100.0 mg/kg/injection, schedule: Q01DX001 (ip), vehicle: saline with Tween-80.
[6] abbreviates: dose: 200.0 mg/kg/injection, schedule: Q01DX001 (ip), vehicle: saline with Tween-80.
[7] abbreviates: dose: 100.0 mg/kg/injection, schedule: Q04DX003 (ip), vehicle: Klucel (hydroxypropylcellulose) (HPC).
Where [8] appears, read: dose: 50.0 mg/kg/injection, schedule: Q01DX009 (ip), vehicle: other.
[9] abbreviates: dose: 100.0 mg/kg/injection, schedule: Q01DX009 (ip), vehicle: other.
The mark [10] stands for this setting: dose: 200.0 mg/kg/injection, schedule: Q01DX009 (ip), vehicle: other.
Setting [11] is: dose: 200.0 mg/kg/injection, schedule: Q04DX003 (ip), vehicle: Klucel (hydroxypropylcellulose) (HPC).
Where [12] appears, read: dose: 400.0 mg/kg/injection, schedule: Q04DX003 (ip), vehicle: Klucel (hydroxypropylcellulose) (HPC).

SMILES strings stand for the structures. “And” between values parts separate entries of the source, which are not always exact repeats. Equal entries are not always repeated. Inconclusive results and toxic doses are left out.

Take `O=NN(CCBr)C(=O)NC1CCCCC1`: the T/C reads like this: (dose: 1.5 mg/kg/injection, schedule: Q01DX009 (ip), vehicle: saline with Tween-80) 109 % of control; (dose: 3.0 mg/kg/injection, schedule: Q01DX009 (ip), vehicle: saline with Tween-80) 109 % of control; (dose: 6.0 mg/kg/injection, schedule: Q01DX009 (ip), vehicle: saline with Tween-80) 113 % of control; (dose: 100.0 mg/kg/injection, schedule: Q01DX009 (ip), vehicle: gum acacia) 103 % of control; under setting [1], 122 % of control; (dose: 100.0 mg/kg/injection, schedule: Q04DX003 (ip), vehicle: gum acacia) 113 % of control. Also, the T/C was 109 % of control under setting [2]; 115 % of control (dose: 133.0 mg/kg/injection, schedule: Q01DX009 (ip), vehicle: gum acacia); 95 % of control (dose: 150.0 mg/kg/injection, schedule: Q01DX009 (ip), vehicle: saline with Tween-80); 118 % of control and 122 % of control under setting [3]; 104 % of control (dose: 200.0 mg/kg/injection, schedule: Q04DX003 (ip), vehicle: gum acacia); 109 % of control under setting [4]. For the same molecule, the T/C was 100 % of control (dose: 300.0 mg/kg/injection, schedule: Q01DX009 (ip), vehicle: gum acacia); 103 % of control (dose: 400.0 mg/kg/injection, schedule: Q01DX009 (ip), vehicle: gum acacia); 91 % of control (dose: 400.0 mg/kg/injection, schedule: Q04DX003 (ip), vehicle: gum acacia).

Take `O=Cc1c2ccc(Cl)cc2nc2ccc(Cl)cc12`: the T/C under setting [5] was 100 % of control; the T/C under setting [6] is 100 % of control; the T/C (dose: 400.0 mg/kg/injection, schedule: Q01DX001 (ip), vehicle: saline with Tween-80) was 100 % of control.

As to `O=Ic1ccccc1`, the T/C is 105 % of control and 118 % of control (dose: 6.25 mg/kg/injection, schedule: Q01DX009 (ip), vehicle: Klucel (hydroxypropylcellulose) (HPC)); 105 % of control and 116 % of control (dose: 12.5 mg/kg/injection, schedule: Q01DX009 (ip), vehicle: Klucel (hydroxypropylcellulose) (HPC)); 122 % of control and 124 % of control and 204 % of control (dose: 25.0 mg/kg/injection, schedule: Q01DX009 (ip), vehicle: Klucel (hydroxypropylcellulose) (HPC)); 104 % of control (dose: 50.0 mg/kg/injection, schedule: Q04DX003 (ip), vehicle: Klucel (hydroxypropylcellulose) (HPC)); 95 % of control under setting [7].

For the molecule `C=C1C(=O)OC2/C=C(/C)C(OC(C)=O)CC(O)/C(C)=C\C(OC(=O)/C(C)=C\C)C12` (configuration not stated), the T/C was 100 % of control (dose: 2.5 mg/kg/injection, schedule: Q01DX009 (ip), vehicle: saline + alcohol); 118 % of control (dose: 5.0 mg/kg/injection, schedule: Q01DX009 (ip), vehicle: saline + alcohol); 109 % of control (dose: 10.0 mg/kg/injection, schedule: Q01DX009 (ip), vehicle: saline + alcohol); 109 % of control (dose: 20.0 mg/kg/injection, schedule: Q01DX009 (ip), vehicle: saline + alcohol); 115 % of control (dose: 27.0 mg/kg/injection, schedule: Q01DX010 (ip), vehicle: saline); 122 % of control (dose: 40.0 mg/kg/injection, schedule: Q01DX009 (ip), vehicle: saline + alcohol). In addition, the T/C (dose: 40.0 mg/kg/injection, schedule: Q01DX010 (ip), vehicle: saline) was 110 % of control and the T/C (dose: 80.0 mg/kg/injection, schedule: Q01DX009 (ip), vehicle: saline + alcohol) is 86 % of control.

Consider `CCN1CCCC(Nc2nc(Nc3cc(Cl)cc(Cl)c3)nc3cc(Cl)ccc23)C1` (configuration not stated), for which the T/C is 120 % of control (dose: 37.5 mg/kg/injection, schedule: Q01DX001 (ip), vehicle: saline sonified); 115 % of control (dose: 75.0 mg/kg/injection, schedule: Q01DX001 (ip), vehicle: saline sonified); 120 % of control (dose: 150.0 mg/kg/injection, schedule: Q01DX001 (ip), vehicle: saline sonified).

Regarding `O=C(O)CCN1CCCc2ccccc21`, the T/C was 95 % of control under setting [8], 104 % of control under setting [9] and 95 % of control under setting [10].

With `COc1ccc(C(C(N)=O)N2CCCC2)cc1` (configuration not stated), the T/C is, setting by setting: under setting [2], 110 % of control; under setting [4], 120 % of control; (dose: 400.0 mg/kg/injection, schedule: Q04DX003 (ip), vehicle: saline with Tween-80) 100 % of control.

As for `CC(C)OC(CCCl)c1ccccc1` (configuration not stated), the T/C (dose: 75.0 mg/kg/injection, schedule: Q01DX009 (ip), vehicle: Klucel (hydroxypropylcellulose) (HPC)) was 95 % of control; the T/C under setting [7] was 100 % of control; the T/C (dose: 150.0 mg/kg/injection, schedule: Q01DX009 (ip), vehicle: Klucel (hydroxypropylcellulose) (HPC)) is 109 % of control; the T/C under setting [11] is 96 % of control; the T/C (dose: 300.0 mg/kg/injection, schedule: Q01DX009 (ip), vehicle: Klucel (hydroxypropylcellulose) (HPC)) is 109 % of control; the T/C under setting [12] was 100 % of control.

In the case of `CC(=O)CC(=O)OCc1ccccc1`, the T/C is, setting by setting: under setting [1], 100 % of control; under setting [3], 118 % of control; (dose: 400.0 mg/kg/injection, schedule: Q01DX009 (ip), vehicle: saline with Tween-80) 100 % of control.

In the case of `COc1ccc(/C=C(/C)[N+](=O)[O-])cc1OC`, the T/C (dose: 50.0 mg/kg/injection, schedule: Q01DX001 (ip), vehicle: saline with Tween-80) is 109 % of control; the T/C under setting [5] is 113 % of control; the T/C under setting [7] was 104 % of control; the T/C under setting [6] was 118 % of control; the T/C under setting [11] was 109 % of control.

Turning to `CC1(C)OS2(OC(C)(C)c3ccccc32)c2ccccc21`, the T/C reads like this: under setting [8], 101 % of control; under setting [9], 107 % of control; under setting [10], 117 % of control.

Turning to `COc1ccc(NC(=O)Oc2cc(C)cc(C)c2)cc1`, the T/C under setting [7] is 100 % of control, the T/C under setting [11] is 95 % of control and the T/C under setting [12] was 100 % of control.

In the case of `Nc1ncnc2c1ncn2C1CC(O)C(CO)O1` (configuration not stated), the T/C runs as follows: (dose: 440.0 mg/kg/injection, schedule: Q01DX009 (ip), vehicle: saline with Tween-80) 93 % of control; (dose: 660.0 mg/kg/injection, schedule: Q01DX009 (ip), vehicle: saline with Tween-80) 93 % of control; (dose: 1000.0 mg/kg/injection, schedule: Q01DX009 (ip), vehicle: saline with Tween-80) 105 % of control.

Regarding `COc1cc2c(cc1OC)[C@]13C[C@H](OC)CC=C1CCN3CCC2`, the T/C (dose: 10.0 mg/kg/injection, schedule: Q01DX009 (ip), vehicle: alcohol) is 86 % of control; the T/C (dose: 20.0 mg/kg/injection, schedule: Q01DX009 (ip), vehicle: alcohol) was 100 % of control; the T/C (dose: 40.0 mg/kg/injection, schedule: Q01DX009 (ip), vehicle: alcohol) was 100 % of control; the T/C (dose: 80.0 mg/kg/injection, schedule: Q01DX009 (ip), vehicle: alcohol) was 95 % of control.

With `CC1=C(O)C(=O)C(C2=C(O)C(=O)C(C)=C(O)C2=O)=C(O)C1=O`, the T/C is, setting by setting: (dose: 0.63 mg/kg/injection, schedule: Q01DX010 (ip), vehicle: saline) 100 % of control; (dose: 1.25 mg/kg/injection, schedule: Q01DX010 (ip), vehicle: saline) 100 % of control; (dose: 62.5 micrograms/kg/injection, schedule: Q01DX001 (ip), vehicle: saline) 118 % of control; (dose: 125.0 micrograms/kg/injection, schedule: Q01DX001 (ip), vehicle: saline) 90 % of control; (dose: 250.0 micrograms/kg/injection, schedule: Q01DX001 (ip), vehicle: saline) 100 % of control; (dose: 500.0 micrograms/kg/injection, schedule: Q01DX001 (ip), vehicle: saline) 100 % of control. Also, the T/C (dose: 1000.0 micrograms/kg/injection, schedule: Q01DX001 (ip), vehicle: saline) was 100 % of control.

For `O=C1OC(=O)C2C1C(c1ccc(Cl)cc1)N1C3C(=O)OC(=O)C3C(c3ccc(Cl)cc3)N21` (configuration not stated), the T/C was 97 % of control (dose: 50.0 mg/kg/injection, schedule: Q01DX009 (ip), vehicle: saline with Tween-80); 93 % of control under setting [1]; 88 % of control under setting [3].
